Data on five compounds can be found in the supplement of paper PMC10307832.

The subject of the first test is NCI-H522. In words: relative viability (nuclei count vs DMSO), 5 days (fraction); higher = more cells survive. As to conditions: first compound 0.8 µM. The essentials:
(§1)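 Relative viability divides the nuclei count in treated wells by that in vehicle wells. Lung cancer cell lines were seeded in 1536-well plates, dosed by pin tool the next day, and fixed and stained after 5 days in one step with final 0.05% Triton X-100, 1% formaldehyde and 1 ug/ml Hoechst. Dosing was a single drug or a fixed anchor-drug dose plus five library-drug doses (not always all listed) in √10 steps, and values are medians of duplicate plates imaged at 4×.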
For `Nc1cccc2c1CN(C1CCC(=O)NC1=O)C2=O` (stereo not given) [Lenalidomide] + CCNC(=O)c1noc(-c2cc(C(C)C)c(O)cc2O)c1-c1ccc(CN2CCOCC2)cc1 [Luminespib] (partner 0.01 µM), the relative viability came out at 1.79.
`Nc1cccc2c1CN(C1CCC(=O)NC1=O)C2=O` (stereo not given) [Lenalidomide] + Nc1ncn([C@H]2C[C@H](O)[C@@H](CO)O2)c(=O)n1 [Decitabine] (partner 2 µM) gave a relative viability of 0.76.
On the same count and under the same terms, the same measure for `Nc1cccc2c1CN(C1CCC(=O)NC1=O)C2=O` (stereo not given) [Lenalidomide] + CC(=O)c1c(C)c2cnc(Nc3ccc(N4CCNCC4)cn3)nc2n(C2CCCC2)c1=O [Palbociclib] (partner 0.5 µM): 1.

Staying with this test, now noted: first compound 2.53 µM.
With `Nc1cccc2c1CN(C1CCC(=O)NC1=O)C2=O` (stereo not given) [Lenalidomide] + CCNC(=O)c1noc(-c2cc(C(C)C)c(O)cc2O)c1-c1ccc(CN2CCOCC2)cc1 [Luminespib] (partner 0.01 µM), the relative viability was determined as 1.28.
The same measure, in the same setting: the same measure for `Nc1cccc2c1CN(C1CCC(=O)NC1=O)C2=O` (stereo not given) [Lenalidomide] + Nc1ncn([C@H]2C[C@H](O)[C@@H](CO)O2)c(=O)n1 [Decitabine] (partner 2 µM): 0.694; for `Nc1cccc2c1CN(C1CCC(=O)NC1=O)C2=O` (stereo not given) [Lenalidomide] + Cc1nc(Nc2ncc(C(=O)Nc3c(C)cccc3Cl)s2)cc(N2CCN(CCO)CC2)n1 [Dasatinib] (partner 0.075 µM): 0.749; for `Nc1cccc2c1CN(C1CCC(=O)NC1=O)C2=O` (stereo not given) [Lenalidomide] + N=C(N)NC(=N)NCCc1ccccc1 [Phenformin] (partner 250 µM): 0.643.
In turn, `Nc1cccc2c1CN(C1CCC(=O)NC1=O)C2=O` (stereo not given) [Lenalidomide] + CC(=O)c1c(C)c2cnc(Nc3ccc(N4CCNCC4)cn3)nc2n(C2CCCC2)c1=O [Palbociclib] (partner 0.5 µM) yielded a relative viability of 1.19.

Still in this test, the particulars now being: first compound 8 µM.
Compound `Nc1cccc2c1CN(C1CCC(=O)NC1=O)C2=O` (stereo not given) [Lenalidomide] + CCNC(=O)c1noc(-c2cc(C(C)C)c(O)cc2O)c1-c1ccc(CN2CCOCC2)cc1 [Luminespib] (partner 0.01 µM) had a relative viability of 1.17.
Consider `Nc1cccc2c1CN(C1CCC(=O)NC1=O)C2=O` (stereo not given) [Lenalidomide] + Nc1ncn([C@H]2C[C@H](O)[C@@H](CO)O2)c(=O)n1 [Decitabine] (partner 2 µM), for which the relative viability stood at 0.626.
`Nc1cccc2c1CN(C1CCC(=O)NC1=O)C2=O` (stereo not given) [Lenalidomide] + Cc1nc(Nc2ncc(C(=O)Nc3c(C)cccc3Cl)s2)cc(N2CCN(CCO)CC2)n1 [Dasatinib] (partner 0.075 µM) showed a relative viability of 0.678.
The same measure, in the same setting: the value for `Nc1cccc2c1CN(C1CCC(=O)NC1=O)C2=O` (stereo not given) [Lenalidomide] + N=C(N)NC(=N)NCCc1ccccc1 [Phenformin] (partner 250 µM) was 0.573; that for `Nc1cccc2c1CN(C1CCC(=O)NC1=O)C2=O` (stereo not given) [Lenalidomide] + CC(=O)c1c(C)c2cnc(Nc3ccc(N4CCNCC4)cn3)nc2n(C2CCCC2)c1=O [Palbociclib] (partner 0.5 µM) was 0.716.

The subject of a further test is NCI-H441. The test is described as above. As to conditions: first compound 0.253 µM. The essentials:
as §1
For `Nc1cccc2c1CN(C1CCC(=O)NC1=O)C2=O` (stereo not given) [Lenalidomide] + CCNC(=O)c1noc(-c2cc(C(C)C)c(O)cc2O)c1-c1ccc(CN2CCOCC2)cc1 [Luminespib] (partner 0.01 µM), the relative viability is 0.293.
In the case of `Nc1cccc2c1CN(C1CCC(=O)NC1=O)C2=O` (stereo not given) [Lenalidomide] + Nc1ncn([C@H]2C[C@H](O)[C@@H](CO)O2)c(=O)n1 [Decitabine] (partner 2 µM), the relative viability came out at 0.233.
The same measure, in the same setting: the value for `Nc1cccc2c1CN(C1CCC(=O)NC1=O)C2=O` (stereo not given) [Lenalidomide] + Cc1nc(Nc2ncc(C(=O)Nc3c(C)cccc3Cl)s2)cc(N2CCN(CCO)CC2)n1 [Dasatinib] (partner 0.075 µM) was 0.67.
`Nc1cccc2c1CN(C1CCC(=O)NC1=O)C2=O` (stereo not given) [Lenalidomide] + N=C(N)NC(=N)NCCc1ccccc1 [Phenformin] (partner 250 µM) came in with a relative viability of 0.827.
The compound `Nc1cccc2c1CN(C1CCC(=O)NC1=O)C2=O` (stereo not given) [Lenalidomide] + CC(=O)c1c(C)c2cnc(Nc3ccc(N4CCNCC4)cn3)nc2n(C2CCCC2)c1=O [Palbociclib] (partner 0.5 µM) showed a relative viability of 0.239.

Still in this test, the particulars now being: first compound 0.8 µM.
Compound `Nc1cccc2c1CN(C1CCC(=O)NC1=O)C2=O` (stereo not given) [Lenalidomide] + CCNC(=O)c1noc(-c2cc(C(C)C)c(O)cc2O)c1-c1ccc(CN2CCOCC2)cc1 [Luminespib] (partner 0.01 µM) displayed a relative viability of 0.388.
The compound `Nc1cccc2c1CN(C1CCC(=O)NC1=O)C2=O` (stereo not given) [Lenalidomide] + Nc1ncn([C@H]2C[C@H](O)[C@@H](CO)O2)c(=O)n1 [Decitabine] (partner 2 µM) displayed a relative viability of 0.229.
Same read-out and setting: the same measure for `Nc1cccc2c1CN(C1CCC(=O)NC1=O)C2=O` (stereo not given) [Lenalidomide] + Cc1nc(Nc2ncc(C(=O)Nc3c(C)cccc3Cl)s2)cc(N2CCN(CCO)CC2)n1 [Dasatinib] (partner 0.075 µM): 0.518; for `Nc1cccc2c1CN(C1CCC(=O)NC1=O)C2=O` (stereo not given) [Lenalidomide] + N=C(N)NC(=N)NCCc1ccccc1 [Phenformin] (partner 250 µM): 0.958.
Same read-out and setting: the same measure for `Nc1cccc2c1CN(C1CCC(=O)NC1=O)C2=O` (stereo not given) [Lenalidomide] + CC(=O)c1c(C)c2cnc(Nc3ccc(N4CCNCC4)cn3)nc2n(C2CCCC2)c1=O [Palbociclib] (partner 0.5 µM): 0.205.

The same test, now with this note: first compound 2.53 µM.
The compound `Nc1cccc2c1CN(C1CCC(=O)NC1=O)C2=O` (stereo not given) [Lenalidomide] + CCNC(=O)c1noc(-c2cc(C(C)C)c(O)cc2O)c1-c1ccc(CN2CCOCC2)cc1 [Luminespib] (partner 0.01 µM) had a relative viability of 0.307.
In turn, `Nc1cccc2c1CN(C1CCC(=O)NC1=O)C2=O` (stereo not given) [Lenalidomide] + Nc1ncn([C@H]2C[C@H](O)[C@@H](CO)O2)c(=O)n1 [Decitabine] (partner 2 µM) came in with a relative viability of 0.264.
On the same count and under the same terms, the value for `Nc1cccc2c1CN(C1CCC(=O)NC1=O)C2=O` (stereo not given) [Lenalidomide] + Cc1nc(Nc2ncc(C(=O)Nc3c(C)cccc3Cl)s2)cc(N2CCN(CCO)CC2)n1 [Dasatinib] (partner 0.075 µM) was 0.648.
Same read-out and setting: the same measure for `Nc1cccc2c1CN(C1CCC(=O)NC1=O)C2=O` (stereo not given) [Lenalidomide] + N=C(N)NC(=N)NCCc1ccccc1 [Phenformin] (partner 250 µM): 0.949; for `Nc1cccc2c1CN(C1CCC(=O)NC1=O)C2=O` (stereo not given) [Lenalidomide] + CC(=O)c1c(C)c2cnc(Nc3ccc(N4CCNCC4)cn3)nc2n(C2CCCC2)c1=O [Palbociclib] (partner 0.5 µM): 0.264.

Staying with this test, now noted: first compound 8 µM.
On to `Nc1cccc2c1CN(C1CCC(=O)NC1=O)C2=O` (stereo not given) [Lenalidomide] + CCNC(=O)c1noc(-c2cc(C(C)C)c(O)cc2O)c1-c1ccc(CN2CCOCC2)cc1 [Luminespib] (partner 0.01 µM), for which the relative viability came to 0.285.
Same read-out and setting: the same measure for `Nc1cccc2c1CN(C1CCC(=O)NC1=O)C2=O` (stereo not given) [Lenalidomide] + Nc1ncn([C@H]2C[C@H](O)[C@@H](CO)O2)c(=O)n1 [Decitabine] (partner 2 µM): 0.262.
